Experimental data from patent publication US9340538B2, “Dihydropyrimidine compounds and their application in pharmaceuticals” (SUNSHINE LAKE PHARMA CO., LTD., priority 2013, dated 2016).
Like-named read-outs stand apart in the source and are kept apart here.

Tested on: HBV
Test: In-vitro anti-HBV activity in stable HBV-producing cell line (HepG2.2.15), HBV DNA in culture fluid by qPCR
Assay type: cell-based
Conditions: Hepatitis B virus, read-out: HBV (% Inh.) (500 nmol)
Experimental: In-Vitro Anti-HBV Activity of Compounds in Stable HBV-Producing Cell Line (HepG2.2.15)
HBV DNA contents in cell culture fluid were detected by the qPCR-based assay and percents of HBV inhibition by compounds (% Inh) were calculated. Specific procedures are as follows:
HepG2.2.15 cells were seeded into each well of 96-well plates, 40,000 cells per well. Cells were treated with cell culture medium containing compounds 24 hours after cell seeding. Each compound to detected percent inhibition was in duplicate and the final concentration of each compound was 500 nmol in each well. The compound-containing mediums were refreshed on day 4 post cell seeding. Culture media were collected from the HepG2.2.15 plates on day 7 post cell seeding followed by HBV DNA extraction.
HBV DNA extraction: using QIAamp 96 DNA Blood Kit (QIAGEN 51161).
PCR for quantification: PCR mix was prepared according to PCR system; PCR mix was dispensed to 384-well optical reaction plates (special for quantification); The standard diluted proportionally was added; The sample was added; The plates were sealed with optical adhesive film; PCR system was performed according to programs.
Percent of HBV inhibition of DNA replication by compound was calculated using the following equation: % Inh.=[1-HBV DNA quantity of sample/HBV DNA quantity of DMSO control]*100. II. Assay Results

[1] = 168 h, 500 nmol final concentration, HepG2.2.15 cells, HBV DNA in culture media on day 7 post seeding, vs DMSO control

Row | SMILES | inhibition at 0.5 µM [1] [%] | inhibition at 0.5 µM (HepG2.2.15, 168 h) [%]
1 | CCOC(=O)C1=C(CN2CCO[C@H](COC(=O)C(N)C(C)C)C2)NC(c2nccs2)=NC1c1ccc(F)cc1Br (stereo in doubt) [Example 126, Ethyl 6-(((S)-2-((((S)-2-amino-3-methylbutanoyl)oxy)methyl)morpholino)methyl)-4-(2-bromo-4-fluorophenyl)-2-(thiazol-2-yl)-1,4-dihydropyrimidine-5-carboxylate] | 94.7 | –
2 | CCOC(=O)C1=C(CN2CCOCC2C(=O)O)NC(c2nccs2)=NC1c1ccccc1C(F)(F)F (centres unmarked) [Example 1, 4-((5-(ethoxycarbonyl)-2-(thiazol-2-yl)-6-(2-(trifluoromethyl)phenyl)-3,6-dihydropyrimidin-4-yl)methyl)morpholine-3-carboxylic acid] | 75.8 | –
3 | CCOC(=O)C1=C(CN2CCOCC2C(=O)O)NC(c2nccs2)=NC1c1ccccc1[N+](=O)[O-] (centres unmarked) [Example 2, 4-((5-(ethoxycarbonyl)-6-(2-nitrophenyl)-2-(thiazol-2-yl)-3,6-dihydropyrimidin-4-yl)methyl)morpholine-3-carboxylic acid] | 31.3 | –
4 | CCOC(=O)C1=C(CN2CCOCC2C(=O)O)NC(c2nccs2)=NC1c1ccc(F)cc1Br (centres unmarked) [Example 3, 4-((6-(2-bromo-4-fluorophenyl)-5-(ethoxycarbonyl)-2-(thiazol-2-yl)-3,6-dihydropyrimidin-4-yl)methyl)morpholine-3-carboxylic acid] | 84.5 | –
5 | CCOC(=O)C1=C(CN2CCOCC2C(=O)O)NC(c2nccs2)=NC1c1ccc(F)cc1Cl (centres unmarked) [Example 4, 4-((6-(2-chloro-4-fluorophenyl)-5-(ethoxycarbonyl)-2-(thiazol-2-yl)-3,6-dihydropyrimidin-4-yl)methyl)morpholine-3-carboxylic acid] | 90 | –
6 | CCOC(=O)C1=C(CN2CCOCC2C(=O)O)NC(c2nccs2)=NC1c1ccc(Cl)cc1Cl (centres unmarked) [Example 5, 4-((6-(2,4-dichlorophenyl)-5-(ethoxycarbonyl)-2-(thiazol-2-yl)-3,6-dihydropyrimidin-4-yl)methyl)morpholine-3-carboxylic acid] | – | 95
7 | COC(=O)C1=C(CN2CCOCC2C(=O)O)NC(c2nccs2)=NC1c1ccc(F)cc1Br (centres unmarked) [Example 6, 4-((6-(2-bromo-4-fluorophenyl)-5-(methoxycarbonyl)-2-(thiazol-2-yl)-3,6-dihydropyrimidin-4-yl)methyl)morpholine-3-carboxylic acid] | 99.9 | –
8 | CCOC(=O)C1=C(CN2CCOC(C(=O)O)C2)NC(c2nccs2)=NC1c1ccc(F)cc1Br (centres unmarked) [Example 9, 4-((6-(2-bromo-4-fluorophenyl)-5-(ethoxycarbonyl)-2-(thiazol-2-yl)-3,6-dihydropyrimidin-4-yl)methyl)morpholine-2-carboxylic acid] | – | 93.1
9 | CCOC(=O)C1=C(CN2CCOC(C(=O)O)C2)NC(c2nccs2)=NC1c1ccc(F)cc1Cl (centres unmarked) [Example 10, 4-((6-(2-chloro-4-fluorophenyl)-5-(ethoxycarbonyl)-2-(thiazol-2-yl)-3,6-dihydropyrimidin-4-yl)methyl)morpholine-2-carboxylic acid] | 89.7 | –
10 | CCOC(=O)C1=C(CN2CCOC(C(=O)O)C2)NC(c2nccs2)=NC1c1ccc(Cl)cc1Cl (centres unmarked) [Example 11, 4-((6-(2,4-dichlorophenyl)-5-(ethoxycarbonyl)-2-(thiazol-2-yl)-3,6-dihydropyrimidin-4-yl)methyl)morpholine-2-carboxylic acid] | 95.6 | –
11 | COC(=O)C1=C(CN2CCOC(C(=O)O)C2)NC(c2nccs2)=NC1c1ccc(F)cc1Br (centres unmarked) [Example 12, 4-((6-(2-bromo-4-fluorophenyl)-5-(methoxycarbonyl)-2-(thiazol-2-yl)-3,6-dihydropyrimidin-4-yl)methyl)morpholine-2-carboxylic acid] | 53.8 | –
12 | COC(=O)C1=C(CN2CCOC(C(=O)O)C2)NC(c2nccs2)=NC1c1ccc(F)cc1Cl (centres unmarked) [Example 13, 4-((6-(2-chloro-4-fluorophenyl)-5-(methoxycarbonyl)-2-(thiazol-2-yl)-3,6-dihydropyrimidin-4-yl)methyl)morpholine-2-carboxylic acid] | 54.5 | –
13 | CCOC(=O)C1=C(CN2CC(C)(C)OC[C@H]2C(=O)O)NC(c2nccs2)=NC1c1ccc(Cl)cc1Cl (stereo partly drawn) [Example 21, (3S)-4-((6-(2,4-dichlorophenyl)-5-(ethoxycarbonyl)-2-(thiazol-2-yl)-3,6-dihydropyrimidin-4-yl)methyl)-6,6-dimethylmorpholine-3-carboxylic acid] | 51.2 | –
14 | CCOC(=O)C1=C(CN2CC(C)(C)OC[C@H]2C(=O)O)NC(c2nccs2)=NC1c1ccc(F)cc1Cl (stereo partly drawn) [Example 23, (3S)-4-((6-(2-chloro-4-fluorophenyl)-5-(ethoxycarbonyl)-2-(thiazol-2-yl)-3,6-dihydropyrimidin-4-yl)methyl)-6,6-dimethylmorpholine-3-carboxylic acid] | 45 | –
15 | CCOC(=O)C1=C(CN2CC(C)(C)OC[C@H]2C(=O)OC)NC(c2nccs2)=NC1c1ccc(Cl)cc1Cl (stereo partly drawn) [Example 24, Methyl (3S)-4-((6-(2,4-dichlorophenyl)-5-(ethoxycarbonyl)-2-(thiazol-2-yl)-3,6-dihydropyrimidin-4-yl)methyl)-6,6-dimethylmorpholine-3-carboxylate] | 56.1 | –
16 | CCOC(=O)C1=C(CN2CCOCC2C(N)=O)NC(c2nccs2)=NC1c1ccc(F)cc1Br (centres unmarked) [Example 25, Ethyl 4-(2-bromo-4-fluorophenyl)-6-((3-carbamoylmorpholino)methyl)-2-(thiazol-2-yl)-1,4-dihydropyrimidine-5-carboxylate] | 91.9 | –
17 | CCOC(=O)C1=C(CN2CCOCC2C(N)=O)NC(c2nccs2)=NC1c1ccc(F)cc1Cl (centres unmarked) [Example 26, Ethyl 6-((3-carbamoylmorpholino)methyl)-4-(2-chloro-4-fluorophenyl)-2-(thiazol-2-yl)-1,4-dihydropyrimidine-5-carboxylate] | 96 | –
18 | CCOC(=O)C1=C(CN2CCOCC2C(N)=O)NC(c2nccs2)=NC1c1ccc(Cl)cc1Cl (centres unmarked) [Example 27, Ethyl 6-((3-carbamoylmorpholino)methyl)-4-(2,4-dichlorophenyl)-2-(thiazol-2-yl)-1,4-dihydropyrimidine-5-carboxylate] | 91.9 | –
19 | CCOC(=O)C1=C(CN2CCO[C@H](C)[C@H]2C(=O)O)NC(c2nccs2)=NC1c1ccc(F)cc1Br (stereo partly drawn) [Example 34, (2R,3S)-4-((6-(2-bromo-4-fluorophenyl)-5-(ethoxycarbonyl)-2-(thiazol-2-yl)-3,6-dihydropyrimidin-4-yl)methyl)-2-methylmorpholine-3-carboxylic acid] | – | 94.3
20 | CCOC(=O)C1=C(CN2CCOC[C@@H]2CO)NC(c2nccs2)=NC1c1ccc(F)cc1Br (stereo partly drawn) [Example 40, Ethyl 4-(2-bromo-4-fluorophenyl)-6-(((S)-3-(hydroxymethyl)morpholino)methyl)-2-(thiazol-2-yl)-1,4-dihydropyrimidine-5-carboxylate] | 95 | –
21 | CCOC(=O)C1=C(CN2CCOC[C@@H]2CO)NC(c2nccs2)=NC1c1ccc(Cl)cc1Cl (stereo partly drawn) [Example 42, Ethyl 4-(2,4-dichlorophenyl)-6-(((S)-3-(hydroxymethyl)morpholino)methyl)-2-(thiazol-2-yl)-1,4-dihydropyrimidine-5-carboxylate] | – | 91.9
22 | CCOC(=O)C1=C(CN2CCOC[C@H]2COC(=O)[C@@H](N)C(C)C)NC(c2nccs2)=NC1c1ccc(F)cc1Br (stereo partly drawn) [Example 49, Ethyl 6-(((S)-3-((((S)-2-amino-3-methylbutanoyl)oxy)methyl)morpholino)methyl)-4-(2-bromo-4-fluorophenyl)-2-(thiazol-2-yl)-1,4-dihydropyrimidine-5-carboxylate] | 96.2 | –
23 | CCOC(=O)C1=C(CN2CCOCC2C(=O)OC)NC(c2nccs2)=NC1c1ccc(F)cc1Br (centres unmarked) [Example 51, Methyl 4-((6-(2-bromo-4-fluorophenyl)-5-(ethoxycarbonyl)-2-(thiazol-2-yl)-3,6-dihydropyrimidin-4-yl)methyl)morpholine-3-carboxylate] | – | 91.3
24 | CCOC(=O)C1=C(CN2CCOC[C@H]2C(=O)NO)NC(c2nccs2)=NC1c1ccc(F)cc1Br (stereo partly drawn) [Example 52, Ethyl 4-(2-bromo-4-fluorophenyl)-6-(((S)-3-(hydroxycarbamoyl)morpholino)methyl)-2-(thiazol-2-yl)-1,4-dihydropyrimidine-5-carboxylate] | 89.5 | –
25 | CCOC(=O)C1=C(CN2CCOC[C@H]2C(=O)NOC)NC(c2nccs2)=NC1c1ccc(F)cc1Br (stereo partly drawn) [Example 53, Ethyl 4-(2-bromo-4-fluorophenyl)-6-(((S)-3-(methoxycarbamoyl)morpholino)methyl)-2-(thiazol-2-yl)-1,4-dihydropyrimidine-5-carboxylate] | 92.6 | –
26 | CCOC(=O)C1=C(CN2CCOC[C@H]2C(=O)NCCO)NC(c2nccs2)=NC1c1ccc(F)cc1Br (stereo partly drawn) [Example 54, Ethyl 4-(2-bromo-4-fluorophenyl)-6-(((S)-3-((2-hydroxyethyl)carbamoyl)morpholino)methyl)-2-(thiazol-2-yl)-1,4-dihydropyrimidine-5-carboxylate] | 91 | –
